The source of these data is patent publication US20260224582A1, “Heterobicyclic amides as inhibitors of CD38” (Cerevance, Inc., priority 2022, published 2026).

One experiment concerns the target T1, Recombinant mouse CD38 (Mus musculus, UniProt P56528).
T1 sequence (P56528 1-304): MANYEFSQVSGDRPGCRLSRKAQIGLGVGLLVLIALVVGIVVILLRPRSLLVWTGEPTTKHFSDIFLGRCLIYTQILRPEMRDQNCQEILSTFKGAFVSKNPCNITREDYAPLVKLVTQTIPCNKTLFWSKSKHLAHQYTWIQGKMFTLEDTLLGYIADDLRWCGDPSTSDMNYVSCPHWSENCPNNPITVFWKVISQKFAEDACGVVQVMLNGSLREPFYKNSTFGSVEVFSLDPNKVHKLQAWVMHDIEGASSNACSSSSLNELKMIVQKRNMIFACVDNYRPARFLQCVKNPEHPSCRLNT
The experiment can be described thus: Mouse CD38 hydrolase assay (fluorescence-based, ε-NAD substrate). The note with it: recombinant mouse CD38 0.4 nM, 12 μM ε-NAD, 30 min preincubation at 25° C. The experiment is classed as biochemical. As to the method: The ability of test compounds to inhibit mouse CD38 hydrolase activity was measured in a fluorescence-based assay using non-physiological NAD^+ substrate analogue 1,N^6-etheno NAD^+ (&-NAD). Recombinant mouse CD38 (0.4 nM) was preincubated with test compounds in 384-well black microplates for 30 min at 25° C. in PBS (—Ca^2+/Mg^2+) containing 0.005% BSA (pH 7.4). CD38 hydrolase activity was initiated by addition of 12 μM ε-NAD, which yields the fluorescent product 1,N^6-etheno ADP-ribose. Formation of fluorescent product was followed using ClarioStar Plus (BMG) microplate reader by reading fluorescence (excitation λ=300 nm; emission λ=410 nm) at two time points, one immediately after substrate addition (t=0) and one at 6 min (t=6).
Data was analysed by subtracting the values detected at t=0 from t=6 to correct for variation in baseline fluorescence. Fluorescence values were converted to percent inhibition using the average of high signal (CD38 and ε-NAD) and low signal (CD38 and ε-NAD in the presence of a tool CD38 inhibitor) control wells. IC50 values were determined from a 10-point, halflog concentration response curve with a four-parameter logistic equation.

The target of another experiment is T2, Recombinant human CD38 (Homo sapiens, UniProt P28907).
T2 sequence (P28907 1-300): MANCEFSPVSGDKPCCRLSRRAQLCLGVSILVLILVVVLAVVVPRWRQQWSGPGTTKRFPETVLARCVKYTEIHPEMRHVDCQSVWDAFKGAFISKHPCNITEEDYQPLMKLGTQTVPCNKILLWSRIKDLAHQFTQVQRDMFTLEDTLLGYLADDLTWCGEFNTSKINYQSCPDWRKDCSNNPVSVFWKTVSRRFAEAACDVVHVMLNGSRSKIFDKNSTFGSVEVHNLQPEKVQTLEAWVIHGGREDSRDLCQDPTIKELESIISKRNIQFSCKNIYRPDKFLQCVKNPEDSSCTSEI
The experiment is described as follows: Human CD38 hydrolase assay (fluorescence-based, ε-NAD substrate). The experiment is classed as biochemical. The conditions noted are these: recombinant human CD38 0.8 nM, 4 μM ε-NAD, 30 min preincubation at 25° C. The protocol:
The ability of test compounds to inhibit human CD38 hydrolase activity was measured in a fluorescence-based assay using non-physiological NAD^+ substrate analogue 1,N^6-etheno NAD^+ (ε-NAD). Recombinant human CD38 (0.8 nM) was preincubated with test compounds in 384-well black microplates for 30 min at 25° C. in PBS (—Ca^2+/Mg^2+) containing 0.005% BSA (pH 7.4). CD38 hydrolase activity was initiated by addition of 4 μM ε-NAD, which yields the fluorescent product 1,N^6-etheno ADP-ribose. Formation of fluorescent product was followed using ClarioStar Plus (BMG) microplate reader by reading fluorescence (excitation λ=300 nm; emission λ=410 nm) at two time points, one immediately after substrate addition (t=0) and one at 10 min (t=10). Data was analysed by subtracting the values detected at t=0 from t=10 to correct for variation in baseline fluorescence. Fluorescence values were converted to percent inhibition using the average of high signal (CD38 and ε-NAD) and low signal (CD38 and ε-NAD in the presence of a tool CD38 inhibitor) control wells. IC50 values were determined from a 10-point, half log concentration response curve with a four-parameter logistic equation.

Where only a bound is given, the exact number is not on record here.

Broadly, the IC50 is the point on the concentration scale where inhibition reaches its midpoint. Take `O=C(N[C@H]1CC[C@H](N2CCS(=O)(=O)CC2)CC1)c1cn2ncnc2c(-n2ccnc2)n1` [Example 51, N-((1r,4r)-4-(1,1-dioxidothiomorpholino)cyclohexyl)-8-(1H-imidazol-1-yl)-[1,2,4]triazolo[1,5-a]pyrazine-6-carboxamide]: the IC50 on Recombinant mouse CD38 was at most 40 nM; on Recombinant human CD38 it was at most 1000 nM.
Taken in the same sequence, the figures for `O=C(N[C@H]1CC[C@H](NCC(F)(F)F)CC1)c1nc(-n2ccnc2)c2cccn2n1` [Example 16, 4-(1H-imidazol-1-yl)-N-((1r,4r)-4-((2,2,2-trifluoroethyl)amino)cyclohexyl)pyrrolo[2,1-f][1,2,4]triazine-2-carboxamide] were at most 40 nM and at most 1000 nM.
Taken in the same sequence, the figures for `O=C(N[C@H]1CC[C@H](N2CC[C@@H](F)C2)CC1)c1cn2ccnc2c(-n2ccnc2)n1` [Example 39, N-((1R,4r)-4-((R)-3-fluoropyrrolidin-1-yl)cyclohexyl)-8-(1H-imidazol-1-yl) imidazo[1,2-a]pyrazine-6-carboxamide] were at most 40 nM and at most 100 nM.
For `O=C(N[C@H]1CC[C@H](N2CC(C(F)(F)F)C2)CC1)c1cn2ncnc2c(-n2ccnc2)n1` [Example 56, 8-(1H-imidazol-1-yl)-N-((1r,4r)-4-(3-(trifluoromethyl)azetidin-1-yl)cyclohexyl)-[1,2,4]triazolo[1,5-a]pyrazine-6-carboxamide] the same measures were at most 40 nM and at most 100 nM.
Turning to `O=C(N[C@H]1CC[C@H](NCC(F)F)CC1)c1cn2ccnc2c(-n2ccnc2)n1` [Example 38, N-((1r,4r)-4-((2,2-difluoroethyl)amino)cyclohexyl)-8-(1H-imidazol-1-yl) imidazo[1,2-a]pyrazine-6-carboxamide], the figures for the IC50 on Recombinant mouse CD38 and at Recombinant human CD38 were at most 40 nM and at most 1000 nM, respectively.
On to `O=C(N[C@H]1CC[C@H](NCC(F)(F)F)CC1)c1nc(-c2cncn2CCO)nn2cccc12` [Example 18, 2-(1-(2-hydroxyethyl)-1H-imidazol-5-yl)-N-((1r,4r)-4-((2,2,2-trifluoroethyl)amino)cyclohexyl)pyrrolo[2,1-f][1,2,4]triazine-4-carboxamide], for which the IC50 at Recombinant mouse CD38 and on Recombinant human CD38 was at most 40 nM each time.
Regarding `O=C(N[C@H]1CC[C@H](N2CC[C@@H](F)C2)CC1)c1cn2ncnc2c(-n2ccnc2)n1` [Example 26, N-((1R,4r)-4-((R)-3-fluoropyrrolidin-1-yl)cyclohexyl)-8-(1H-imidazol-1-yl)-[1,2,4]triazolo[1,5-a]pyrazine-6-carboxamide], the IC50 is at most 40 nM at Recombinant mouse CD38 and at most 100 nM at Recombinant human CD38.
